{"source": "paper PMC2933614", "about": "“Quantitative in vitro and in vivo pharmacological profile of CE-178253, a potent and selective cannabinoid type 1 (CB1) Receptor Antagonist” (BMC Pharmacology, 2010)", "origin": "cited, not measured here", "key": {"[1]": {"design": "method as in PMID 12055133", "conditions": "0.5 mg/kg; 2-AG-mediated hyperphagia; cited from earlier work"}, "CB1 receptor": {"test_system": "CB1 receptor", "design": "method as in PMID 17327489", "conditions": "cited from earlier work"}}, "data": [{"molecule": "Cc1c(C(=O)NN2CCCCC2)nn(-c2ccc(Cl)cc2Cl)c1-c1ccc(Cl)cc1", "note": "[SR141716A]", "values": [{"measurement": "Attenuation of FI", "setting": "[1]", "value": "~ 50%"}]}, {"molecule": "C[C@H](NC(=O)C(C)(C)Oc1ccc(C(F)(F)F)cn1)[C@@H](Cc1ccc(Cl)cc1)c1cccc(C#N)c1", "note": "[taranabant]", "values": [{"measurement": "Receptor occupancy required for maximal weight loss efficacy", "setting": "CB1 receptor", "value": "60-90%"}]}]}
